From patent publication US20100125059A1, “1-BIARYLAZETIDINONE DERIVATIVE” (Teijin Pharma Limited, priority 2007, published 2010)
Where two headings read alike, the source gives them in different places.

Tests used:
[1] = either alone or in the presence of a statin; cited from earlier work
Caco-2 cells = experiment: Cholesterol absorption inhibition assay (in vitro), [14C] cholesterol mixed micelles; type: cell-based; details: Homo sapiens, 24 hours, read-out: cholesterol absorption inhibitory activity; for inhibition at 10 µM: concentration of 10 μM; for inhibition at 12.5 µM: concentration of 12.5 μM
Outline: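 Caco-2 cells cultured 2 weeks, then incubated 24 h at 37° C with [14C] cholesterol mixed micelles (oleate, phosphatidylcholine, taurocholate) plus compound at 0.5 to 25 μM final. Lipids extracted, cholesteryl ester separated by TLC and quantified by imaging plate; inhibition as background-corrected percentage of solvent control.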

[2] = system: hamsters fed a high cholesterol diet; experiment: Measurement of lipid lowering effect in hamsters fed a high cholesterol diet; type: in vivo, Male Golden Syrian hamsters; details: Mesocricetus auratus, po, 168 h, gavage once daily, 7 days
Outline: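 Male Golden Syrian hamsters (6/group) on 0.5% cholesterol diet, dosed by gavage once daily in corn oil at 0.01 to 10 mg/kg; serum and liver sampled 4 h after last dose. TC, TG and LDL-C measured enzymatically; effects expressed as % suppression versus control and normal-diet groups.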

[3] = read-out: serum LDL-C lowering effect (suppression rate of an increase in serum LDL-C concentration)
[4] = read-out: serum TG lowering effect (serum TG lowering rate)
[5] = read-out: serum TC lowering effect (suppression rate of an increase in serum TC concentration)

SMILES | inhibition at 10 µM (Caco-2 cells) [%] | inhibition at 12.5 µM (Caco-2 cells) [%] | inhibition in vivo at 0.1 mg/kg [2, 4] [%] | also measured
O=C1[C@H](CC[C@H](O)c2ccc(F)cc2)[C@@H](c2ccc(O)cc2)N1c1ccc(F)cc1 [Ezetimibe, (3R,4S)-3-[(3S)-3-(4-fluorophenyl)-3-hydroxypropyl]-1-(4-fluorophenyl)-4-(4-hydroxyphenyl)azetidin-2-one] |  |  |  | LDL cholesterol-lowering effect [1]: 15-20%
O=C1[C@H](SC[C@H](O)c2ccc(Cl)cc2)[C@@H](c2ccc(O)cc2)N1c1ccc(-c2cccnc2)cc1 [Example 32, (3R,4R)-3-[(2R)-2-(4-chlorophenyl)-2-hydroxyethylthio]-4-(4-hydroxyphenyl)-1-[4-(pyridin-3-yl)phenyl]azetidin-2-one] | ≥ 50 | ≥ 60 | ≥ 20 | inhibition in vivo at 0.01 mg/kg [2, 3]: ≥ 30%
Cc1cc(O)ccc1[C@@H]1[C@@H](SC[C@H](O)c2ccc(F)cc2)C(=O)N1c1ccc(-c2cncc(C(F)(F)F)c2)cc1 [Example 99, (3R,4R)-3-[(2R)-2-(4-fluorophenyl)-2-hydroxyethylthio]-4-(4-hydroxy-2-methylphenyl)-1-[4-(5-trifluoromethylpyridin-3-yl)phenyl]azetidin-2-one] |  | ≥ 60 | ≥ 20 | 
CN(C)c1ccc(-c2ccc(N3C(=O)[C@H](SC[C@H](O)c4ccc(F)cc4)[C@H]3c3ccc(O)cc3)cc2)cn1 [Example 22, (3R,4R)-3-[(2R)-2-(4-fluorophenyl)-2-hydroxyethylthio]-1-[4-(6-dimethylaminopyridin-3-yl)phenyl]-4-(4-hydroxyphenyl)azetidin-2-one] | ≥ 50 | ≥ 60 |  | inhibition in vivo at 0.01 mg/kg ([2]; read-out: liver TC lowering effect (suppression rate of an increase in liver TC concentration)): ≥ 30%; inhibition in vivo at 0.01 mg/kg [2, 3]: ≥ 30%; inhibition in vivo at 0.1 mg/kg [2, 3]: ≥ 50%; inhibition in vivo at 0.1 mg/kg [2, 5]: ≥ 50%
Cc1ccc(-c2ccc(N3C(=O)[C@H](SC[C@H](O)c4ccc(Cl)cc4)[C@H]3c3ccc(O)cc3)cc2)cn1 [Example 91, (3R,4R)-3-[(2R)-2-(4-chlorophenyl)-2-hydroxyethylthio]-4-(4-hydroxyphenyl)-1-[4-(6-methylpyridin-3-yl)phenyl]azetidin-2-one] |  | ≥ 60 |  | inhibition in vivo at 0.01 mg/kg [2, 5]: ≥ 30%
N#Cc1ccc(-c2ccc(N3C(=O)[C@H](SC[C@H](O)c4ccc(F)cc4)[C@H]3c3ccc(O)cc3)cc2)cn1 [Example 9, 5-(4-{(3R,4R)-3-[(2R)-2-(4-fluorophenyl)-2-hydroxyethylthio]-4-(4-hydroxyphenyl)-2-oxoazetidinyl}phenyl)pyridine-2-carbonitrile] | ≥ 50 |  | ≥ 20 | 
COc1cc(N2C(=O)[C@H](SC[C@H](O)c3ccc(F)cc3)[C@H]2c2ccc(O)cc2)ccc1-c1cccnc1 [Example 52, (3R,4R)-3-[(2R)-2-(4-fluorophenyl)-2-hydroxyethylthio]-4-(4-hydroxyphenyl)-1-[3-methoxy-4-(pyridin-3-yl)phenyl]azetidin-2-one] | ≥ 50 |  | ≥ 20 | 
